Source: publication PMC7347136 (PLoS ONE, 2020)

Key:
HEL = experiment: Viacount viability assay by flow cytometry; assay type: cell-based, human; details: 6 h pulse, up to 2 μM, assessed at 48 h
Protocol: (§1) AML cells were seeded at 5 x 10^5 cells/ml in a 6-well plate and incubated with the test compound or vehicle control (DMSO) for 6, 8 or 10 h. At the end of the incubation period, cells were collected into Falcon tubes, pelleted via centrifugation (5 min at 478 x g), and medium containing compound was aspirated. The cells were resuspended in 4 ml of fresh compound-free medium and returned to the 6-well plates for further incubation. Following compound addition, 100 μl (at 24 h), 75 μl (at 48 h), 50 μl (at 72 h) or 30 μl (at 96 h) of a homogeneous suspension of cells were removed from the culture, made up to 100 μl with medium and mixed with 100 μl Guava Viacount reagent (Millipore, Nottingham, UK) in a 96-well plate. Samples were incubated for 20 min in the dark, mixed and then analyzed by GuavaSoft 2.6 software on the Guava Easycyte 8HT (Millipore). Guava Viacount software was used to gate and calculate the proportion of viable and dead cells in the population.

KG-1 = experiment: Viacount viability assay by flow cytometry; assay type: cell-based, human; details: 6 h pulse, up to 2 μM, assessed at 48 h
Protocol: as §1

Kasumi-1 cells = experiment: Viacount viability assay by flow cytometry; assay type: cell-based, human; details: 6 h pulse, 0.5 or 1.0 μM, assessed at 24 h
Protocol: as §1

sensitive AML cell lines = experiment: Viacount viability assay by flow cytometry; assay type: cell-based; details: Homo sapiens, 6 h pulse, assessed at 48 h, read-out: non-viable cells
Protocol: as §1

MCL1 = tested on: MCL1; parameters: method as in earlier work; details: patient PBMCs; recommended phase 2 dose; cited from earlier work

CC[C@H](Nc1nc(NCc2cnc(C)cc2C)c2ncn(C(C)C)c2n1)[C@@H](C)O [Fadraciclib, 2-pentanol, 3-[[6-[[(4,6-dimethyl-3-pyridinyl)methyl]amino]-9-(1-methylethyl)-9Hpurin-2-yl]amino]-, (2R,3S)]
apoptosis (non-viable cells) (HEL): no appreciable increase in apoptosis
apoptosis (non-viable cells) (KG-1): approximately 50%
cells induced into apoptosis (dead cells) (Kasumi-1 cells): up to 80%
cytotoxicity at 1 µM (sensitive AML cell lines): ~100%
duration of MCL1 suppression (MCL1): > 24 h
